# Experimental data from patent publication US20080009418A1, “Selective Inhibitors” (Alchemia LTD., priority 2004, published 2008).
# Columns and labels:
# [1] = target: T1, Human Melanocortin (MC3) (Homo sapiens, UniProt P41968); experiment: Radioligand binding, human melanocortin MC3 membranes, FlashPlate, [125I]-NDP-αMSH; details: compound at 10 μM, [125I]-NDP-αMSH
# T1 construct: purchased Perkin Elmer Biosignal
# Method in brief: (§1)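 Cloned human receptor membranes were coated onto FlashPlate wells and incubated with radioligand and compound (added from a 0.5 mM DMSO daughter plate) for 1 hour at room temperature in the dark. Scintillation counting gave percent inhibition, with DMSO defining total and reference ligand defining non-specific binding.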
# [2] = target: T2, Human neurokinin (NK1) (Homo sapiens, UniProt P25103); experiment: Radioligand binding, human neurokinin NK1 membranes, filtration, [125I]-Substance P; details: compound at 10 μM, [125I]-Substance P
# T2 construct: purchased Perkin Elmer Biosignal
# T2 sequence (P25103 whole entry): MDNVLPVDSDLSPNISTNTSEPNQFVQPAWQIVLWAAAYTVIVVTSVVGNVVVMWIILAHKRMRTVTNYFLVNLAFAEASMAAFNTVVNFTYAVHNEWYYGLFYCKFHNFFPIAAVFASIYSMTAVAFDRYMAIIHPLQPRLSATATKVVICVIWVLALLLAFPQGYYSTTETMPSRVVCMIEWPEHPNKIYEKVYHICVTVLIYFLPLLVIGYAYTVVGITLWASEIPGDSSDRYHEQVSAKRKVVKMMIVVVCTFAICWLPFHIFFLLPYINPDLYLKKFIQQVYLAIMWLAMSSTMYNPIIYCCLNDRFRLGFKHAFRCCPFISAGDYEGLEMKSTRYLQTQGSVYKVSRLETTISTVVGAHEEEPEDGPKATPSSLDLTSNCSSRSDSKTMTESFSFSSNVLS
# Method in brief: (§2)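 Membranes from cloned human receptors were incubated with compound and radioligand for 1 hour at room temperature. Bound ligand was collected on 0.3% PEI-soaked filters, washed with cold 50 mM Tris-HCl pH 7.4, and counted by scintillation. Percent inhibition was computed against DMSO totals and reference-ligand nonspecific wells.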
# [3] = target: T3, Human melanin-concentrating hormone (MCH1) (Homo sapiens, UniProt Q99705); experiment: Radioligand binding, human melanin-concentrating hormone MCH1 membranes, FlashPlate, [125I]-S36057; details: compound at 10 μM; for A6: inhibition of radioligand binding, human melanin-concentrating hormone (MCH1) / A6 radioligand binding, percentage inhibition: [125I]-S36057
# T3 construct: purchased Perkin Elmer Biosignal
# T3 sequence (Q99705 whole entry): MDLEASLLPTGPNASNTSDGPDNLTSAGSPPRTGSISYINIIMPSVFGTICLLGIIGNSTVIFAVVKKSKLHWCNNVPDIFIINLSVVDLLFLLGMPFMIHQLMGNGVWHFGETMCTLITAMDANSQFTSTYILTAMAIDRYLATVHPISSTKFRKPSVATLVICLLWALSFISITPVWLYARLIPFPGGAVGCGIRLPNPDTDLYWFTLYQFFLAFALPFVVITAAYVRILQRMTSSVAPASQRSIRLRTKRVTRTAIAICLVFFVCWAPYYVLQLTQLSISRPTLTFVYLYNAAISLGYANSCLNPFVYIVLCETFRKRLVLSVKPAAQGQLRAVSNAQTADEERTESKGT
# Method in brief: as §1
# [4] = target: T4, Human δ-opioid (DOP) (Homo sapiens, UniProt P41143); experiment: Radioligand binding, human δ-opioid (DOP) membranes, FlashPlate, [3H]-Bremazocine; details: compound at 10 μM, [3H]-Bremazocine
# T4 construct: purchased Perkin Elmer Biosignal
# T4 sequence (P41143 whole entry): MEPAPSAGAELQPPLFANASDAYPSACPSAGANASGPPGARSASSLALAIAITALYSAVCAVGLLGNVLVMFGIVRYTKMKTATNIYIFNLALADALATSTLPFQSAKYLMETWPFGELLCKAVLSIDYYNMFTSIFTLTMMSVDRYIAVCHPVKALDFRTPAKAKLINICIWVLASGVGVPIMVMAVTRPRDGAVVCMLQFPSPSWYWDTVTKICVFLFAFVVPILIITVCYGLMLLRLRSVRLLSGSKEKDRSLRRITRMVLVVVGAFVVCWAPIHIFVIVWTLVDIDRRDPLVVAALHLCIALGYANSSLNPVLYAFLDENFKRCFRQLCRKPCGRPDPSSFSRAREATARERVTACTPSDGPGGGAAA
# Method in brief: as §1
# [5] = target: T5, Human Melanocortin (MC4) (Homo sapiens, UniProt P32245); experiment: Radioligand binding, human melanocortin MC4 membranes, FlashPlate, [125I]-NDP-αMSH; details: compound at 10 μM, [125I]-NDP-αMSH
# T5 construct: purchased Perkin Elmer Biosignal
# T5 sequence (P32245 whole entry): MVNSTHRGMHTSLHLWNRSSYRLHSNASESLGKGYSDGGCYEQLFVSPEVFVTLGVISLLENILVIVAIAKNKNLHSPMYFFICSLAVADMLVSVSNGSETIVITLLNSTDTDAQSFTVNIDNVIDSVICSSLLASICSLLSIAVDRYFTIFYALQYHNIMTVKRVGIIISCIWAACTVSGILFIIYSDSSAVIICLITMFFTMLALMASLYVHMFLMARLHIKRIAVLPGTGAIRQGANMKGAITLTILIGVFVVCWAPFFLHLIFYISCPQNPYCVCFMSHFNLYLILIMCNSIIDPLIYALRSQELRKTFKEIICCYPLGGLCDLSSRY
# Method in brief: as §1
# [6] = target: T6, Human κ-Opioid (KOP) (Homo sapiens, UniProt P41145); experiment: Radioligand binding, human κ-opioid (KOP) membranes, filtration, [3H]-Diprenorphine; details: compound at 10 μM, [3H]-Diprenorphine
# T6 construct: purchased Perkin Elmer Biosignal
# T6 sequence (P41145 whole entry): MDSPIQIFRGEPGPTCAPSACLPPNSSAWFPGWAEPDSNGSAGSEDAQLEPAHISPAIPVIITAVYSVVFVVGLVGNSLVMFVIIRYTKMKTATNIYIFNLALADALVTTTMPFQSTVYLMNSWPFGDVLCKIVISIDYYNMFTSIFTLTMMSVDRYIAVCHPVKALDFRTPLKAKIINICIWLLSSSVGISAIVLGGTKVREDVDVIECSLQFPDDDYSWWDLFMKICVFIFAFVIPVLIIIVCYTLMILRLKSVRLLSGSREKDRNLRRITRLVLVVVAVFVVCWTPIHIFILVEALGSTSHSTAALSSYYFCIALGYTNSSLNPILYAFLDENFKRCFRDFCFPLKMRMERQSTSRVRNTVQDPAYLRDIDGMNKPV
# Method in brief: as §2
# [7] = target: T7, Human opioid (ORL1) (Homo sapiens, UniProt P41146); experiment: Radioligand binding, human opioid ORL1 membranes, FlashPlate, [125I]-Nociceptin; details: compound at 10 μM, [125I]-Nociceptin
# T7 construct: purchased Perkin Elmer Biosignal
# T7 sequence (P41146 whole entry): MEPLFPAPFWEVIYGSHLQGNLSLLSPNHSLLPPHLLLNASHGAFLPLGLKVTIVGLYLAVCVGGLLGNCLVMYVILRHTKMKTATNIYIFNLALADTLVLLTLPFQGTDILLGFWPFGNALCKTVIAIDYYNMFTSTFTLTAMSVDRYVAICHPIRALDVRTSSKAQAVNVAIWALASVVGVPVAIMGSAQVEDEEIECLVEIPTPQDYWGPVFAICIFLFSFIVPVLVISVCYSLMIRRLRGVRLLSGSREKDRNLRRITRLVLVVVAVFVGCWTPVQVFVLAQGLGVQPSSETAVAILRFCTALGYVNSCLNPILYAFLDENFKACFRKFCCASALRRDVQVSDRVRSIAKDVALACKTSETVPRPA
# Method in brief: as §1
# [8] = target: T8, Human μ-opioid (MOP) (Homo sapiens, UniProt P35372); experiment: Radioligand binding, human μ-opioid (MOP) membranes, FlashPlate, [3H]-Naloxone; details: compound at 10 μM, [3H]-Naloxone
# T8 construct: purchased Perkin Elmer Biosignal
# T8 sequence (P35372 whole entry): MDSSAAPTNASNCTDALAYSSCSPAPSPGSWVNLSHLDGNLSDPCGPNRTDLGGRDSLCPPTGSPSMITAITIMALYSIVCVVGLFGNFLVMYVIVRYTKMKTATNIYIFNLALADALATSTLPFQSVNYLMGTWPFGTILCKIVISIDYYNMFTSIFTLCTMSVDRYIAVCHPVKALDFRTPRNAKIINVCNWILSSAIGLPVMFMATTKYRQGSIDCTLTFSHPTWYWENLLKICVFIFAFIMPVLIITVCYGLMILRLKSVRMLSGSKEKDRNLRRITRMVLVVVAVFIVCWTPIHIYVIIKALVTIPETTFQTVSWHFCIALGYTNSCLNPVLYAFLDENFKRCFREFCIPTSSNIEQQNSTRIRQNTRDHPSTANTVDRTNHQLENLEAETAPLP
# Method in brief: as §1
# [9] = target: T9, Human melanocortin (MC5) (Homo sapiens, UniProt P33032); experiment: Radioligand binding, human melanocortin MC5 membranes, FlashPlate, [125I]-NDP-αMSH; details: compound at 10 μM, [125I]-NDP-αMSH
# T9 construct: purchased Perkin Elmer Biosignal
# T9 sequence (P33032 whole entry): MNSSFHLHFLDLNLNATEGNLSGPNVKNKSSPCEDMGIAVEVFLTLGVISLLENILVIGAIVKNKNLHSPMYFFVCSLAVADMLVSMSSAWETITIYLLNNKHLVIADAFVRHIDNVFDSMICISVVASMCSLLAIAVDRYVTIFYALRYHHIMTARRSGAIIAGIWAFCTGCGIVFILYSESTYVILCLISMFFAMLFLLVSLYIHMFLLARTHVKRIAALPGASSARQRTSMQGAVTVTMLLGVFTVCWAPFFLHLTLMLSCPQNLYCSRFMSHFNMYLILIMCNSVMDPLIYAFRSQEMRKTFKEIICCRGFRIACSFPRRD
# Method in brief: as §1
# [10] = target: T10, Human neuropeptide Y (NPY-Y1) (Homo sapiens, UniProt P25929); experiment: Radioligand binding, human neuropeptide Y NPY-Y1 membranes, FlashPlate, [125I]-PYY; details: compound at 10 μM, [125I]-PYY
# T10 construct: purchased Perkin Elmer Biosignal
# T10 sequence (P25929 1-384): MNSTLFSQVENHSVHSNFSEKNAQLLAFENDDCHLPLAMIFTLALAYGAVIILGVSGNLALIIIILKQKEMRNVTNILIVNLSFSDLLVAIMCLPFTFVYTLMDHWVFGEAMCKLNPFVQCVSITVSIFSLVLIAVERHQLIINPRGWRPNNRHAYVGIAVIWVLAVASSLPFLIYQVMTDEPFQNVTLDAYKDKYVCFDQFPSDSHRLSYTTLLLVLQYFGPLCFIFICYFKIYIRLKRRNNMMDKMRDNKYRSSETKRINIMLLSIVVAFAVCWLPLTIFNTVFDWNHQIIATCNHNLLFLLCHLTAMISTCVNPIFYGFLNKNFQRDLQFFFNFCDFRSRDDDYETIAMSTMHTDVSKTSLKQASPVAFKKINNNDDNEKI
# Method in brief: as §1
# [11] = target: T11, Mouse urotensin (mUR2) (Mus musculus, UniProt Q8VIH9); experiment: Radioligand binding, mouse urotensin mUR2 membranes, FlashPlate, [125I]-Urotensin II; details: compound at 10 μM, [125I]-Urotensin II
# T11 construct: purchased Perkin Elmer Biosignal
# T11 sequence (Q8VIH9 1-385): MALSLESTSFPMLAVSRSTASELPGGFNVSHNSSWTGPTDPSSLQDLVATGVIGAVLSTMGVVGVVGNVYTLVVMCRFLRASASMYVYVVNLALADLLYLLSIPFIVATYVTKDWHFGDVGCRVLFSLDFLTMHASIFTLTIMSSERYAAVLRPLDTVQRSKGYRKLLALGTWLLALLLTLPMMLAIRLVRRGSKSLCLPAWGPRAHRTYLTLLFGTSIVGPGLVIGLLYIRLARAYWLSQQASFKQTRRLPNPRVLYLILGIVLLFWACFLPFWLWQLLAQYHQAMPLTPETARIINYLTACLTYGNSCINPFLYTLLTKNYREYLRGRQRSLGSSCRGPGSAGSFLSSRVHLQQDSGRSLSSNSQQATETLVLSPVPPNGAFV
# Method in brief: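 Cloned mouse urotensin (mUR2) receptor membranes from Perkin Elmer Biosignal were immobilized in FlashPlate microplates using a proprietary coating. Each well got 19.5 μl buffer, then 0.5 μl of DMSO, reference ligand, or compound. Adding 5 μl of [125I]-Urotensin II, diluted to 5× final concentration in binding buffer, started binding. Plates were sealed with TopSeal-A and incubated 1 hour at room temperature in the dark. Wells were counted for 30 seconds each on a TopCount after a 60-second delay, and percentage inhibition was calculated.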
# T1 sequence (P41968 whole entry): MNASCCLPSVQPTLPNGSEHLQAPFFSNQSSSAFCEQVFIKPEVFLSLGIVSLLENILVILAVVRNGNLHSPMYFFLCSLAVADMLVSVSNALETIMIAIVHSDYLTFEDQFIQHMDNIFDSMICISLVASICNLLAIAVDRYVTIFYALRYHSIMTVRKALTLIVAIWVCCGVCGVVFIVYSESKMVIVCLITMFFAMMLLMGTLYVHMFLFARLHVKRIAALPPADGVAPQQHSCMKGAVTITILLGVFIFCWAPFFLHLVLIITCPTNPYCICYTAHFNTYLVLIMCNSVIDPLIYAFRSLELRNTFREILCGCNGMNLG
structure (smiles),measurement,setting,value
"COC[C@H]1OC(OCCc2ccccc2)[C@H](NC(=O)CCCN)[C@@H](OCc2ccc3ccccc3c2)[C@@H]1O (single isomer, unassigned) [compound 345]","A3: inhibition of radioligand binding, human melanocortin (MC3)",[1]; 10 µM,− (“−” indicates less than 50% inhibition at 10 μM)
same,"A8: inhibition of radioligand binding, human neurokinin (NK1)",[2],+ (“+” indicates greater than 50% inhibition at 10 μM)
same,"A6: inhibition of radioligand binding, human melanin-concentrating hormone (MCH1)",[3]; 10 µM,− (“−” indicates less than 50% inhibition at 10 μM)
same,"A1: inhibition of radioligand binding, human δ-opioid (DOP)",[4],− (“−” indicates less than 50% inhibition at 10 μM)
same,"A4: inhibition of radioligand binding, human melanocortin (MC4)",[5]; 10 µM,− (“−” indicates less than 50% inhibition at 10 μM)
same,"A2: inhibition of radioligand binding, human κ-opioid (KOP)",[6]; 10 µM,− (“−” indicates less than 50% inhibition at 10 μM)
same,"A10: inhibition of radioligand binding, human opioid (ORL1)",[7]; 10 µM,− (“−” indicates less than 50% inhibition at 10 μM)
same,"A7: inhibition of radioligand binding, human μ-opioid (MOP)",[8]; 10 µM,− (“−” indicates less than 50% inhibition at 10 μM)
same,"A5: inhibition of radioligand binding, human melanocortin (MC5)",[9]; 10 µM,− (“−” indicates less than 50% inhibition at 10 μM)
same,"A9: inhibition of radioligand binding, human neuropeptide Y (NPY-Y1)",[10],− (“−” indicates less than 50% inhibition at 10 μM)
same,"A11: inhibition of radioligand binding, mouse urotensin (mUR2)",[11]; 10 µM,− (“−” indicates less than 50% inhibition at 10 μM)
CO[C@H]1[C@H](O)[C@@H](COCc2ccc(Cl)cc2)OC(OCCc2ccccc2)[C@@H]1NC(=O)CNC(=N)N (stereo partly shown) [compound 119],"A3 radioligand binding, percentage inhibition",[1],− (“−” indicates less than 50% inhibition at 10 μM)
same,"A8 radioligand binding, percentage inhibition",[2],+ (“+” indicates greater than 50% inhibition at 10 μM)
same,"A6 radioligand binding, percentage inhibition",[3],− (“−” indicates less than 50% inhibition at 10 μM)
same,"A1 radioligand binding, percentage inhibition",[4],− (“−” indicates less than 50% inhibition at 10 μM)
same,"A4 radioligand binding, percentage inhibition",[5],− (“−” indicates less than 50% inhibition at 10 μM)
same,"A2 radioligand binding, percentage inhibition",[6],− (“−” indicates less than 50% inhibition at 10 μM)
same,"A10 radioligand binding, percentage inhibition",[7],− (“−” indicates less than 50% inhibition at 10 μM)
same,"A7 radioligand binding, percentage inhibition",[8],− (“−” indicates less than 50% inhibition at 10 μM)
same,"A5 radioligand binding, percentage inhibition",[9],− (“−” indicates less than 50% inhibition at 10 μM)
same,"A9 radioligand binding, percentage inhibition",[10],− (“−” indicates less than 50% inhibition at 10 μM)
same,"A11 radioligand binding, percentage inhibition",[11],− (“−” indicates less than 50% inhibition at 10 μM)
CSC1OC(COCc2ccc3ccccc3c2)C(O)C(OCc2ccc3ccccc3c2)C1NC(=O)CN (stereo not shown) [compound 316],"A3: inhibition of radioligand binding, human melanocortin (MC3)",[1],− (“−” indicates less than 50% inhibition at 10 μM)
same,"A8: inhibition of radioligand binding, human neurokinin (NK1)",[2],+ (“+” indicates greater than 50% inhibition at 10 μM)
same,"A6: inhibition of radioligand binding, human melanin-concentrating hormone (MCH1)",[3],− (“−” indicates less than 50% inhibition at 10 μM)
same,"A1: inhibition of radioligand binding, human δ-opioid (DOP)",[4],− (“−” indicates less than 50% inhibition at 10 μM)
same,"A4: inhibition of radioligand binding, human melanocortin (MC4)",[5],+ (“+” indicates greater than 50% inhibition at 10 μM)
same,"A2: inhibition of radioligand binding, human κ-opioid (KOP)",[6],− (“−” indicates less than 50% inhibition at 10 μM)
same,"A10: inhibition of radioligand binding, human opioid (ORL1)",[7],− (“−” indicates less than 50% inhibition at 10 μM)
same,"A7: inhibition of radioligand binding, human μ-opioid (MOP)",[8],− (“−” indicates less than 50% inhibition at 10 μM)
same,"A5: inhibition of radioligand binding, human melanocortin (MC5)",[9],− (“−” indicates less than 50% inhibition at 10 μM)
same,"A9: inhibition of radioligand binding, human neuropeptide Y (NPY-Y1)",[10],− (“−” indicates less than 50% inhibition at 10 μM)
same,"A11: inhibition of radioligand binding, mouse urotensin (mUR2)",[11],− (“−” indicates less than 50% inhibition at 10 μM)
CO[C@H]1[C@H](O)[C@@H](COCc2ccc(Cl)cc2)OC(OCc2ccc(Cl)cc2)[C@@H]1NC(=O)CNC(=N)N (stereo partly shown) [compound 105],"A3 radioligand binding, percentage inhibition",[1],− (“−” indicates less than 50% inhibition at 10 μM)
same,"A8 radioligand binding, percentage inhibition",[2],+ (“+” indicates greater than 50% inhibition at 10 μM)
same,"A6 radioligand binding, percentage inhibition",[3],− (“−” indicates less than 50% inhibition at 10 μM)
same,"A1 radioligand binding, percentage inhibition",[4],− (“−” indicates less than 50% inhibition at 10 μM)
same,"A4 radioligand binding, percentage inhibition",[5],+ (“+” indicates greater than 50% inhibition at 10 μM)
same,"A2 radioligand binding, percentage inhibition",[6],− (“−” indicates less than 50% inhibition at 10 μM)
same,"A10 radioligand binding, percentage inhibition",[7],− (“−” indicates less than 50% inhibition at 10 μM)
same,"A7 radioligand binding, percentage inhibition",[8],− (“−” indicates less than 50% inhibition at 10 μM)
same,"A5 radioligand binding, percentage inhibition",[9],+ (“+” indicates greater than 50% inhibition at 10 μM)
same,"A9 radioligand binding, percentage inhibition",[10],− (“−” indicates less than 50% inhibition at 10 μM)
same,"A11 radioligand binding, percentage inhibition",[11],− (“−” indicates less than 50% inhibition at 10 μM)
CSC1OC(COCc2ccc(-c3ccccc3)cc2)C(O)C(OCc2ccccc2)C1NC(=O)CCCNC(=N)N (stereo not shown) [compound 259],A3: inhibition of radioligand binding,[1]; FlashPlate,− (“−” indicates less than 50% inhibition at 10 μM)
same,A8: inhibition of radioligand binding,[2]; filtration,+ (“+” indicates greater than 50% inhibition at 10 μM)
same,A6: inhibition of radioligand binding,"[3]; [125I]-S36057, FlashPlate",− (“−” indicates less than 50% inhibition at 10 μM)
same,A1: inhibition of radioligand binding,[4]; FlashPlate,− (“−” indicates less than 50% inhibition at 10 μM)
same,A4: inhibition of radioligand binding,[5]; FlashPlate,+ (“+” indicates greater than 50% inhibition at 10 μM)
same,A2: inhibition of radioligand binding,[6]; filtration,− (“−” indicates less than 50% inhibition at 10 μM)
same,A10: inhibition of radioligand binding,[7]; FlashPlate,− (“−” indicates less than 50% inhibition at 10 μM)
same,A7: inhibition of radioligand binding,[8]; FlashPlate,− (“−” indicates less than 50% inhibition at 10 μM)
same,A5: inhibition of radioligand binding,[9]; FlashPlate,− (“−” indicates less than 50% inhibition at 10 μM)
same,A9: inhibition of radioligand binding,[10]; FlashPlate,− (“−” indicates less than 50% inhibition at 10 μM)
same,A11: inhibition of radioligand binding,[11]; FlashPlate,− (“−” indicates less than 50% inhibition at 10 μM)
